Laboratory results: patent US10507233B2, “Universal N-glycan binding reagent” (New England Biolabs, Inc., priority 2014, dated 2019)
Read-outs that look alike come from different tables or passages of the source.

T1: SNAP-Fbs (SNAP-wtFbs): human Fbs sugar binding domain, positions 113 to 296, wild type, SEQ ID NO: 2, fused to SNAP-tag (AGT variant, SEQ ID NO: 4), fusion SEQ ID NO: 3 (Homo sapiens, UniProt Q9UK22)
T1 construct: made in house; host or cells: E. coli, pSNAP-tag(T7)-2 vector
T1 sequence (Q9UK22 with tags, fused parts or gaps): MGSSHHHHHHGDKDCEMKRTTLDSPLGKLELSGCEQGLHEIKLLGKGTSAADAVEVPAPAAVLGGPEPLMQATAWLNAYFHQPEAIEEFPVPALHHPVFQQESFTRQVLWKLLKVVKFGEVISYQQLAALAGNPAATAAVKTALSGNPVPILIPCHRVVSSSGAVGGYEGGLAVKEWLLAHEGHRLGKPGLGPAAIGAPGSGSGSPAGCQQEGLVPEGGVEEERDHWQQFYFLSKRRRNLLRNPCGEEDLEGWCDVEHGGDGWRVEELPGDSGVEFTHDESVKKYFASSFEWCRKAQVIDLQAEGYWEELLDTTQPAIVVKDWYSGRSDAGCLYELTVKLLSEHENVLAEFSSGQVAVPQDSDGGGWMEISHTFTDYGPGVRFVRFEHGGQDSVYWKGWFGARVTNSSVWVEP


What was measured:
[1] = biological target: T1, SNAP-Fbs (SNAP-wtFbs): human Fbs sugar binding domain, positions 113 to 296, wild type, SEQ ID NO: 2, fused to SNAP-tag (AGT variant, SEQ ID NO: 4), fusion SEQ ID NO: 3; assay: Isothermal titration calorimetry of glycan / sialylglycopeptide binding to SNAP-Fbs in solution; conditions: ITC, low salt buffer (50 mM NaCl, 20 mM Tris-HCl, 1 mM EDTA, pH 7.5), 90 μM glycan into 9 μM Fbs, single site binding model
Experimental: Fbs binds to N-glycan and N-glycan with fucose modification at the reducing end of GlcNAc. Isothermal titration calorimetry was used to assay the interaction between Fbs and core structure glycans. Man3GlcNAc2 (M3N2) and Man3GlcNAc2 with (alpha 1-6) fucose modification at the reducing end of GlcNAc (M3N2F) were used as binding substrates (both substrates were purchased from Prozyme, Hayward, Calif. SNAP-Fbs was dialysed against low salt buffer and the glycans were also dissolved in the same dialysis buffer. A Nano ITC instrument (TA Instruments, Lindon, Utah) with 170 μl cell volume and 50 μl buret volume was used. Every 300 seconds, 2.97 μl of 90 μM glycan was automatically injected into 9 μM Fbs solution. The data was fitted using a single site binding model (Nanoanalyze software (TA Instruments, Lindon, Utah)), and the Kd was calculated.
Isothermal titration calorimetry analysis of SGP (Fushimi Pharmaceutical Co., Marugame, Japan) binding to SNAP-Fbs. SNAP-Fbs was dialysed against low salt buffer and SGP was also dissolved in the same low salt buffer. A Nano ITC instrument with 170 μl cell volume and 50 μl buret volume was used. Every 300 seconds, 2.97 μl of 270 μM SGP was automatically injected into 27 μM Fbs solution. The data was fitted using a single site binding model (Nanoanalyze software), and Kd was calculated. […]

Fetuin = Fetuin pull-down assay (Affigel-Fetuin beads, SDS-PAGE, ImageJ); format: binding; conditions: low salt buffer, cell lysates
Description: Fetuin, which contains sialylated complex N-linked glycans, served as the complex N-linked glycomolecule in this example. Fetuin was conjugated to Affigel 15 resin (Bio-Rad, Hercules, Calif.), and then denatured by 6 M Guanidine HCL. After denaturation, the fetuin beads were washed with 50 bead volumes of low salt buffer to remove Guanidine HCL. This immobilized denatured Fetuin was used to screen Fbs mutants for improved affinity to complex N-linked glycomolecules in low salt conditions in a fetuin pull-down assay. In this assay, cell lysates containing the same amount of wild type or mutant Fbs protein were incubated with the same amount of fetuin beads at 4° C. for 1 hour. After incubation, the fetuin beads were washed three times with low salt buffer. The bound Fbs proteins were eluted by 1× gel loading buffer, and analyzed by SDS-PAGE. In the fetuin pull-down assay, the amount of Fbs mutant protein shown on the SDS-PAGE gel indicates the relative affinity of each Fbs mutant for binding to a complex N-linked glycomolecule. Fbs amino acid residue serine 155 was mutated to alanine to assess the effect on the interaction with complex N-linked glycomolecules. Mutation of Ser155 to alanine was expected to reduce the affinity of the interaction between Fbs and fetuin according to the published report of Tanaka et al. (Tanaka, et al. PNAS). […]

| Molecule | fetuin pull-down relative to wild type Fbs (Fetuin) | other results |
| --- | --- | --- |
| CC(=O)N[C@H]1[C@H](O[C@H]2[C@H](O)[C@@H](NC(C)=O)C(O)O[C@@H]2CO)O[C@H](CO)[C@@H](O[C@@H]2O[C@H](CO[C@H]3O[C@H](CO)[C@@H](O)[C@H](O)[C@@H]3O)[C@@H](O)[C@H](O[C@H]3O[C@H](CO)[C@@H](O)[C@H](O)[C@@H]3O)[C@@H]2O)[C@@H]1O (stereo partly drawn) [M3N2, Man(α1-3)(Man(α1-6))Man(β1-4)GlcNAc(β1-4)GlcNAc] |  | Kd ([1]; read-out: Kd M3N2): 123 ± 36 nM |
| CC(=O)N[C@H]1[C@H](O[C@H]2[C@H](O)[C@@H](NC(C)=O)C(O)O[C@@H]2CO[C@@H]2O[C@@H](C)[C@@H](O)[C@@H](O)[C@@H]2O)O[C@H](CO)[C@@H](O[C@@H]2O[C@H](CO[C@H]3O[C@H](CO)[C@@H](O)[C@H](O)[C@@H]3O)[C@@H](O)[C@H](O[C@H]3O[C@H](CO)[C@@H](O)[C@H](O)[C@@H]3O)[C@@H]2O)[C@@H]1O (stereo partly shown) [M3N2F] |  | Kd ([1]; read-out: Kd M3N2F): 128 ± 37 nM |
| S155A: human Fbs SBD variant with S155A mutation (protein, left off: large carriers, human Fbs SBD variant with S155A mutation) FYFLSKRRRNLLRNPCGEEDLEGWCDVEHGGDGWRVEELPGDAGVEFTHDESVKKYFASSFEWCRKAQVIDLQAEGYWEELLDTTQPAIVVKDWYSGRSDAGCLYELTVKLLSEHENVLAEFSSGQVAVPQDSDGGGWMEISHTFTDYGPGVRFVRFEHGGQDSVYWKGWFGARVTNSSVWVEP | 1.5 fold |  |
| S155G: human Fbs SBD variant with S155G mutation (protein, left off: large carriers, human Fbs SBD variant with S155G mutation) FYFLSKRRRNLLRNPCGEEDLEGWCDVEHGGDGWRVEELPGDGGVEFTHDESVKKYFASSFEWCRKAQVIDLQAEGYWEELLDTTQPAIVVKDWYSGRSDAGCLYELTVKLLSEHENVLAEFSSGQVAVPQDSDGGGWMEISHTFTDYGPGVRFVRFEHGGQDSVYWKGWFGARVTNSSVWVEP | 2.0 fold |  |
